The test system of assay [1] is NCIH460, HCT116, MDAMB-231/U 251. The assay can be described thus: Anti-cancer screen, mean GI50 over the cell lines. Type of assay: cell-based. Particulars: in µM. As to the method: (§1) Experimental drugs are screened for anti-cancer activity in three cell lines for their GI50, TGI and LC50 values (using five concentrations for each compound). The cell lines are maintained in DMEM containing 10% fetal bovine serum. 96 well micro titer plates are inoculated with cells in 100 µL for 24 hours at 37° C., 5% CO2, 95% air and 100% relative humidity. 5000 HCT 116 cells/well, 5000 NCIH 460 cells/well and 5000 U251 cells/well are plated. A separate plate with these cell lines is also inoculated to determine cell viability before the addition of the compounds (T0).
(§2) Following 24-hour incubation, experimental drugs are added to the 96 well plates. Each plate contains one of the above cell lines and the following in triplicate: five different concentrations (0.01, 0.1, 1, 10 and 100 µM) of four different compounds, appropriate dilutions of a cytotoxic standard and control (untreated) wells. Compounds are dissolved in DMSO to make 20 mM stock solutions on the day of drug addition and frozen at −20° C. Serial dilutions of these 20 mM stock solutions are made in complete growth medium such that 100 µL of these drug solutions in medium, of final concentrations equaling 0.01, 0.1, 1, 10 and 100 µM can be added to the cells in triplicate. Standard drugs whose anti-cancer activity has been well documented and which are regularly used are doxorubicin and SAHA.
(§3) For T0 measurement, 24 hours after seeding the cells, 10 µL of 3-(4,5-Dimethyl-2-thiazolyl)-2,5-diphenyl-2H-tetrazolium (MTT) solution per well is added and incubation carried out for 3 hours at 37° C., 5% CO2, 95% air and 100% relative humidity, protected from light. Cells incubated with compounds for 48 hours are treated similarly except with the addition of 20 µl MTT solution per well and a subsequent incubation under the same conditions. After 3 hours of MTT incubation, well contents are aspirated carefully followed by addition of 150 µL DMSO per well. Plates are agitated to ensure solution of the formazan crystals in DMSO and absorbance read at 570 nm.
(§4) Percent growth is calculated for each compound's concentration relative to the control and zero measurement wells (T0; viability right before compound addition). If a test well's O.D. value is greater than the T0 measurement for that cell line

The next assay concerns HCT116. Nature of the assay: Anti-cancer screen (MTT), HCT116. Type of assay: cell-based. Conditions: Homo sapiens, HCT-116, 48 hours with compound, tested at 0.01-100 µM. The method, then:
as §1, §2, §3, §4
(§5) %Growth=(test−zero)/(control−zero)×100
(§6) If a test well's O.D. value is lower than the T0 measurement for that cell line, then,
(§7) %Growth=(test−zero)/zero×100

For another assay, the system named is MDAMB-231/U 251. The assay can be described thus: Anti-cancer screen (MTT), MDAMB-231/U 251. The class given is cell-based. Conditions: for CC50: 48 h, read-out: MDAMB-231/U 251 LC50; for GI50 / IC (TGI): 48 hours with compound, MTT, tested at 0.01-100 µM. The method, then: as §1, §2, §3, §4, §5, §6, §7
A further assay relates to NCIH460. Nature of the assay: Anti-cancer screen (MTT), NCIH460. The class given is cell-based. Particulars: Homo sapiens, NCI-H460, 48 hours with compound, tested at 0.01-100 µM. As to the method:
as §1, §2, §3, §4, §5, §6, §7

Another assay deals with HDAC. Nature of the assay: HDAC inhibition. Type of assay: biochemical. Particulars: for HDAC Inhibition 1 μM: compound at 1 μM; for HDAC Inhibition 10 μM: compound at 10 μM.

A word on the GI50: it is the concentration that inhibits growth by half. In general, LC50 refers to the concentration that kills 50% of the test population. For the compound `O=C(Cc1csc(NC(=O)OCc2cccnc2)n1)Nc1nc2ccccc2s1` [Example 11, Pyridin-3-ylmethyl{4-[2-(1,3-benzothiazol-2-ylamino)-2-oxoethyl]-1,3-thiazol-2-yl}carbamate], in assay [1], the “Mean GI50” value stood at 6. Moreover, in the assay with HCT116, the GI50 was above 100 µM, the IC (TGI) is above 100 µM and the LC50 (concentration giving 50% net cell kill relative to T0) is above 100 µM. Besides, in the assay with MDAMB-231/U 251, the CC50 is above 100 µM, the GI50 worked out at 5 µM and the IC (TGI) stood at 10 µM. Besides, in the assay on NCIH460, the GI50 was 7 µM, the IC (TGI) is above 100 µM and the LC50 was above 100 µM.

`O=C(Nc1nc(CC(=O)N2CCC(N3CCCCC3)CC2)cs1)OCc1cccnc1` [Example 13, Pyridin-3-ylmethyl{4-[2-(1,4′-bipiperidin-1′-yl)-2-oxoethyl]-1,3-thiazol-2-yl}carbamate]: in assay [1], the “Mean GI50” value was above 100. In the assay on HCT116, the GI50 is above 100 µM, the IC (TGI) is above 100 µM and the LC50 (concentration giving 50% net cell kill relative to T0) was above 100 µM. In the assay on MDAMB-231/U 251, the CC50 is above 100 µM, the GI50 worked out at 0.09 µM and the IC (TGI) was above 100 µM. In the assay with NCIH460, the GI50 came to 2.8 µM, the IC (TGI) was 25 µM and the LC50 was above 100 µM.

For `CON(C)C(=O)Cc1csc(NC(=O)OCc2cccnc2)n1` [Example 14, Pyridin-3-ylmethyl(4-{2-[methoxy(methyl)amino]-2-oxoethyl}-1,3-thiazol-2-yl)carbamate], the “Mean GI50” value in assay [1] was determined as 45. Further, in the assay with HCT116, the GI50 was found to be 80 µM, the IC (TGI) was above 100 µM and the LC50 (concentration giving 50% net cell kill relative to T0) was above 100 µM. Besides, in the assay with MDAMB-231/U 251, the CC50 was above 100 µM, the GI50 was above 100 µM and the IC (TGI) was above 100 µM. For the same compound, in the assay on NCIH460, the GI50 was 10 µM, the IC (TGI) was above 100 µM and the LC50 is above 100 µM.

As for `CNC(=O)Cc1csc(NC(=O)OCc2cccnc2)n1` [Example 15, Pyridin-3-ylmethyl{4-[2-(methylamino)-2-oxoethyl]-1,3-thiazol-2-yl}carbamate], the “Mean GI50” value in assay [1] came to 73.3. In addition, in the assay with HCT116, the GI50 turned out to be 100 µM, the IC (TGI) is above 100 µM and the LC50 (concentration giving 50% net cell kill relative to T0) is above 100 µM. Moreover, in the assay on MDAMB-231/U 251, the CC50 is above 100 µM, the GI50 turned out to be 60 µM and the IC (TGI) was above 100 µM. Moreover, in the assay with NCIH460, the GI50 worked out at 60 µM, the IC (TGI) was above 100 µM and the LC50 was above 100 µM.

`CN(C)C(=O)Cc1csc(NC(=O)OCc2cccnc2)n1` [Example 16, Pyridin-3-ylmethyl{4-[2-(dimethylamino)-2-oxoethyl]-1,3-thiazol-2-yl}carbamate]: the “Mean GI50” value in assay [1] stood at 14. In the assay with HCT116, the GI50 is above 100 µM, the IC (TGI) is above 100 µM and the LC50 (concentration giving 50% net cell kill relative to T0) is above 100 µM. For the same compound, in the assay with MDAMB-231/U 251, the CC50 is above 100 µM, the GI50 worked out at 20 µM and the IC (TGI) was above 100 µM. In addition, in the assay on NCIH460, the GI50 is 8 µM, the IC (TGI) was above 100 µM and the LC50 is above 100 µM.

Take `Nc1ccccc1NC(=O)Cc1csc(NC(=O)OCc2c(F)c(F)c(F)c(F)c2F)n1` [Example 22, Pentafluorobenzyl(4-{2-[(2-aminophenyl)amino]-2-oxoethyl}-1,3-thiazol-2-yl)carbamate]: the “Mean GI50” value in assay [1] was 37. Further, in the assay with HCT116, the concentration for 50% growth inhibition (GI50) was 53 µM, the IC (TGI) is above 100 µM and the LC50 (concentration giving 50% net cell kill relative to T0) was above 100 µM. Moreover, in the assay on MDAMB-231/U 251, the CC50 is above 100 µM, the GI50 is 10 µM and the IC (TGI) was above 100 µM. In the assay with NCIH460, the GI50 was determined as 48 µM, the IC (TGI) is above 100 µM and the LC50 is above 100 µM.

Turning to `O=C(NCc1ccc(C(=O)NO)cc1)OCc1c(F)c(F)c(F)c(F)c1F` [Example 29, Pentafluorobenzyl{4-[(hydroxyamino)carbonyl]benzyl}carbamate], the “Mean GI50” value in assay [1] came out at 1.5. Moreover, in the assay on HCT116, the 50% growth inhibitory concentration (GI50) was determined as 0.98 µM, the IC (TGI) worked out at 3.5 µM and the LC50 (concentration giving 50% net cell kill relative to T0) came to 48 µM. Moreover, in the assay with MDAMB-231/U 251, the CC50 was above 100 µM, the GI50 was 3.1 µM and the IC (TGI) was above 100 µM. Further, in the assay with NCIH460, the GI50 turned out to be 0.4 µM, the IC (TGI) is 22.5 µM and the LC50 was 82.5 µM.

`O=C(NCc1ccc(C(=O)NO)cc1)OCc1ccc(C(F)(F)F)cc1` [Example 35, 4-(Trifluoromethyl)benzyl{4-[(hydroxyamino)carbonyl]benzyl}carbamate]: the “Mean GI50” value in assay [1] is reported as 8.4. In the assay with HCT116, the GI50 worked out at 5 µM, the IC (TGI) turned out to be 12 µM and the LC50 (concentration giving 50% net cell kill relative to T0) is 60 µM. For the same compound, in the assay on MDAMB-231/U 251, the CC50 amounted to 70 µM, the GI50 is 0.05 µM and the IC (TGI) is 15 µM. In addition, in the assay on NCIH460, the GI50 came to 20 µM, the IC (TGI) was 50 µM and the LC50 was 80 µM.

For the compound `COc1cc(COC(=O)NCc2ccc(C(=O)NO)cc2)cc(OC)c1OC` [Example 36, 3,4,5-Trimethoxybenzyl{4-[(hydroxyamino)carbonyl]benzyl}carbamate], the “Mean GI50” value in assay [1] turned out to be 36.2. In addition, in the assay on HCT116, the GI50 turned out to be 35 µM, the IC (TGI) is 60 µM and the LC50 (concentration giving 50% net cell kill relative to T0) was determined as 85 µM. Moreover, in the assay with MDAMB-231/U 251, the CC50 came to 85 µM, the GI50 came to 5.5 µM and the IC (TGI) amounted to 10 µM. In the assay with NCIH460, the GI50 stood at 68 µM, the IC (TGI) was above 100 µM and the LC50 is above 100 µM.

`Nc1ccccc1NC(=O)c1ccc(CNC(=O)OCc2ccsc2)cc1` [Example 49, 3-Thienylmethyl(4-{[(2-aminophenyl)amino]carbonyl}benzyl)carbamate]: in the assay on HDAC, the “HDAC Inhibition 1 μM” value was found to be 10.15 and the “HDAC Inhibition 10 μM” value is 18.78. In the assay with HCT116, the GI50 was 2 µM, the IC (TGI) was 59 µM and the LC50 (concentration giving 50% net cell kill relative to T0) is above 100 µM. Besides, in the assay with MDAMB-231/U 251, the CC50 was determined as 82 µM, the GI50 worked out at 31 µM and the IC (TGI) came to 56 µM. In addition, in the assay with NCIH460, the GI50 turned out to be 42 µM, the IC (TGI) was found to be 96 µM and the LC50 was above 100 µM.

Consider `CN1CCN(C(=O)c2ccc(CNC(=O)OCc3ccsc3)cc2)CC1` [Example 50, 3-Thienylmethyl{4-[(4-methylpiperazin-1-yl)carbonyl]benzyl}carbamate], for which, in the assay on HDAC, the “HDAC Inhibition 1 μM” value is listed as −3.95 and the “HDAC Inhibition 10 μM” value stood at 1.45. Further, in the assay on HCT116, the GI50 came to 64 µM, the IC (TGI) is above 100 µM and the LC50 (concentration giving 50% net cell kill relative to T0) was above 100 µM. Besides, in the assay with MDAMB-231/U 251, the CC50 was above 100 µM, the GI50 worked out at 65 µM and the IC (TGI) was above 100 µM. In addition, in the assay with NCIH460, the GI50 amounted to 64 µM, the IC (TGI) was above 100 µM and the LC50 is above 100 µM.

As to `O=C(NCc1ccc(C(=O)N2CCOCC2)cc1)OCc1ccsc1` [Example 51, 3-Thienylmethyl[4-(morpholin-4-ylcarbonyl)benzyl]carbamate], in the assay with HDAC, the “HDAC Inhibition 1 μM” value stood at 3.20 and the “HDAC Inhibition 10 μM” value amounted to 3.18. Besides, in the assay on HCT116, the GI50 was above 100 µM, the IC (TGI) was above 100 µM and the LC50 (concentration giving 50% net cell kill relative to T0) was above 100 µM. In the assay with MDAMB-231/U 251, the CC50 is above 100 µM, the GI50 was above 100 µM and the IC (TGI) was above 100 µM. Besides, in the assay with NCIH460, the GI50 amounted to 94.5 µM, the IC (TGI) was above 100 µM and the LC50 was above 100 µM.

`CS(=O)(=O)Oc1ccc(NC(=O)c2ccc(CNC(=O)OCc3cccs3)cc2)cc1` [Example 70, 4-[(4-{[(2-thienylmethyloxycarbonyl)amino]methyl}benzoyl)amino]phenylmethanesulfonate]: in assay [1], the “Mean GI50” value came out at 19.65.

For `CCOC(=O)CN(OC)C(=O)c1ccc(CNC(=O)OCc2cccs2)cc1` [Example 109, ethyl{methoxy[4-({[(2-thienylmethoxy)carbonyl]amino}-methyl)benzoyl]amino}acetate], in the assay with HDAC, the “HDAC Inhibition 1 μM” value came to 8.84 and the “HDAC Inhibition 10 μM” value amounted to 15.41.

The values are drawn from patent US20100152188A1, “Novel Heterocyclic Compounds” (priority 2005, published 2010).
